What was measured:
Assay type in all cases: functional
UO-31 = experiment: Antiproliferative activity against human UO31 cells assessed as growth inhibition at 10 uM after 48 hrs by sulforhodamine B assay relative to control; settings: UO-31, 48 h, read-out: GI
ACHN = experiment: Antiproliferative activity against human ACHN cells assessed as growth inhibition at 10 uM after 48 hrs by sulforhodamine B assay relative to control; settings: read-out: GI
MOLT-4 = experiment: Antiproliferative activity against human MOLT4 cells assessed as growth inhibition at 10 uM after 48 hrs by sulforhodamine B assay relative to control; settings: MOLT-4, 48 h, read-out: GI
K562 = experiment: Antiproliferative activity against human K562 cells assessed as growth inhibition at 10 uM after 48 hrs by sulforhodamine B assay relative to control; settings: K562, 48 h, read-out: GI
A549 = experiment: Antiproliferative activity against human A549/ATCC cells assessed as growth inhibition at 10 uM after 48 hrs by sulforhodamine B assay relative to control; settings: A549, 48 h, read-out: GI
SK-MEL-5 = experiment: Antiproliferative activity against human SK-MEL-5 cells assessed as growth inhibition at 10 uM after 48 hrs by sulforhodamine B assay relative to control; settings: SK-MEL-5, 48 h, read-out: GI
SF-295 = experiment: Antiproliferative activity against human SF295 cells assessed as growth inhibition at 10 uM after 48 hrs by sulforhodamine B assay relative to control; settings: SF-295, 48 h, read-out: GI
HCT-15 = experiment: Antiproliferative activity against human HCT15 cells assessed as growth inhibition at 10 uM after 48 hrs by sulforhodamine B assay relative to control; settings: HCT-15, 48 h, read-out: GI
T47D = experiment: Antiproliferative activity against human T47D cells assessed as growth inhibition at 10 uM after 48 hrs by sulforhodamine B assay relative to control; settings: read-out: GI
UACC-62 = experiment: Antiproliferative activity against human UACC62 cells assessed as growth inhibition at 10 uM after 48 hrs by sulforhodamine B assay relative to control; settings: UACC-62, 48 h, read-out: GI
HCT-116 = experiment: Antiproliferative activity against human HCT116 cells assessed as growth inhibition at 10 uM after 48 hrs by sulforhodamine B assay relative to control; settings: HCT-116, 48 h, read-out: GI
MDA-MB-468 = experiment: Antiproliferative activity against human MDA-MB-468 cells assessed as growth inhibition at 10 uM after 48 hrs by sulforhodamine B assay relative to control; settings: MDA-MB-468, 48 h, read-out: GI
SR = experiment: Antiproliferative activity against human SR cells assessed as growth inhibition at 10 uM after 48 hrs by sulforhodamine B assay relative to control; settings: read-out: GI
LOX IMVI = experiment: Antiproliferative activity against human LOXIMVI cells assessed as growth inhibition at 10 uM after 48 hrs by sulforhodamine B assay relative to control; settings: read-out: GI
MCF7 = experiment: Antiproliferative activity against human MCF7 cells assessed as growth inhibition at 10 uM after 48 hrs by sulforhodamine B assay relative to control; settings: MCF7, 48 h, read-out: GI
NCI-H522 = experiment: Antiproliferative activity against human NCI-H522 cells assessed as growth inhibition at 10 uM after 48 hrs by sulforhodamine B assay relative to control; settings: NCI-H522, 48 h, read-out: GI
NCI/ADR-RES = experiment: Antiproliferative activity against human NCI/ADR-RES cells assessed as growth inhibition at 10 uM after 48 hrs by sulforhodamine B assay relative to control; settings: read-out: GI
NCI-H322M = experiment: Antiproliferative activity against human NCI-H322M cells assessed as growth inhibition at 10 uM after 48 hrs by sulforhodamine B assay relative to control; settings: read-out: GI
HL-60(TB) = experiment: Antiproliferative activity against human HL-60(TB) cells assessed as growth inhibition at 10 uM after 48 hrs by sulforhodamine B assay relative to control; settings: HL-60, 48 h, read-out: GI
CAKI-1 = experiment: Antiproliferative activity against human Caki1 cells assessed as growth inhibition at 10 uM after 48 hrs by sulforhodamine B assay relative to control; settings: CAKI-1, 48 h, read-out: GI
PC-3 = experiment: Antiproliferative activity against human PC3 cells assessed as growth inhibition at 10 uM after 48 hrs by sulforhodamine B assay relative to control; settings: PC-3, 48 h, read-out: GI
OVCAR-4 = experiment: Antiproliferative activity against human OVCAR4 cells assessed as growth inhibition at 10 uM after 48 hrs by sulforhodamine B assay relative to control; settings: OVCAR-4, 48 h, read-out: GI

Row | Compound | inhibition of growth at 10 µM (UO-31) | inhibition of growth at 10 µM (ACHN) | inhibition of growth at 10 µM (MOLT-4) | inhibition of growth at 10 µM (K562) | inhibition of growth at 10 µM (SK-MEL-5) | inhibition of growth at 10 µM (SF-295) | inhibition of growth at 10 µM (HCT-15) | inhibition of growth at 10 µM (T47D) | inhibition of growth at 10 µM (UACC-62) | inhibition of growth at 10 µM (HCT-116) | inhibition of growth at 10 µM (MDA-MB-468) | inhibition of growth at 10 µM (SR) | inhibition of growth at 10 µM (LOX IMVI) | inhibition of growth at 10 µM (MCF7) | inhibition of growth at 10 µM (NCI-H522) | inhibition of growth at 10 µM (NCI/ADR-RES) | inhibition of growth at 10 µM (NCI-H322M) | inhibition of growth at 10 µM (HL-60(TB)) | inhibition of growth at 10 µM (CAKI-1) | inhibition of growth at 10 µM (OVCAR-4) | also measured
1 | CCOC(=O)C1=C(CSC(=S)N2CCOCC2)N(C)C(=O)NC1c1ccccc1 (stereo not drawn) | 9% | 7% | 5% | 83% | 1% | 9% | 7% | 18% | 16% | 6% | 6% | 12% | 12% | 14% | 7% | 6% | 18% | 4% |  |  | inhibition of growth at 10 µM (A549): 4%
2 | CCOC(=O)C1=C(CSc2nc3ccccc3[nH]2)N(C)C(=O)NC1c1ccccc1 (stereo not drawn) | 4% | 2% | 14% | 10% |  | 7% | 7% |  | 11% | 6% | 1% | 1% | 11% | 14% | 3% | 6% | 12% | 6% | 2% |  | inhibition of growth at 10 µM (PC-3): 8%
3 | CCOC(=O)C1=C(CSc2nnnn2-c2ccccc2)N(C)C(=O)NC1c1ccccc1 (stereo not drawn) | 21% | 3% | 26% | 17% | 2% | 11% | 8% | 17% | 17% | 12% | 3% | 13% | 14% | 15% | 14% | 14% | 18% | 7% | 14% | 4% | 
4 | CCOC(=O)C1=C(Cn2cc(CO)nn2)N(C)C(=O)NC1c1ccccc1 (stereo not drawn) | 7% | 2% | 11% | 10% |  | 4% | 6% | 1% |  | 5% |  | 2% | 7% | 12% | 5% | 4% | 9% | 2% | 8% | 3% | 
5 | CCOC(=O)C1=C(CN2CCCC2)N(C)C(=O)NC1c1ccccc1 (stereo not drawn) | 8% |  | 4% | 1% |  | 9% | 6% | 1% |  | 2% |  | 10% | 8% | 13% | 4% | 3% | 9% |  | 9% |  | 
